{"source": "paper PMC11651181", "about": "“Discovery of 6α-Thiazolylcarboxamidonaltrexamine Derivative (NTZ) as a Potent and Central Nervous System Penetrant Opioid Receptor Modulator with Drug-like Properties for Potential Treatment of Opioid Use Disorder” (ACS Pharmacology & Translational Science, 2024)", "key": {"δ opioid receptor (DOR)": {"molecular_target": "T1, δ opioid receptor (DOR) (Homo sapiens, UniProt P41143)", "T1 construct": "expressed in transfected cells; host or cells: CHO (hDOR-CHO), membrane preparation", "T1 sequence (P41143 whole entry)": "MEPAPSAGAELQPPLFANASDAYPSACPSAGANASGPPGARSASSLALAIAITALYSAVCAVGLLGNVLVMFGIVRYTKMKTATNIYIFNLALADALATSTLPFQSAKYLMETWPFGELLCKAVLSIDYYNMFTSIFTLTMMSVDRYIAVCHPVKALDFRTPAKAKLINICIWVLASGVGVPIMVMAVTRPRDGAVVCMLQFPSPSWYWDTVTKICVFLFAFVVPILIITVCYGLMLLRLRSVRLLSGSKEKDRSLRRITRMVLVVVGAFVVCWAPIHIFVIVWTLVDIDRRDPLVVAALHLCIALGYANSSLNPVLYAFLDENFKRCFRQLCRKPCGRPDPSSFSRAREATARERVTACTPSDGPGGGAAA", "experiment": "Competitive radioligand binding assay, DOR", "procedure": "The competition binding assay was performed using monoclonal mouse opioid receptors expressed in CHO cell lines (monoclonal human δ opioid receptor was used for the DOR assay).\nThe bound radioligand was separated using a Brandel harvester. Specific binding to the MOR, KOR, and DOR was calculated by subtracting the binding observed in the presence of 5 μM naltrexone, U50488, and SNC80, respectively, from the binding in their absence. Relative affinity values (IC50) were determined by fitting displacement binding inhibition data to a nonlinear regression model using GraphPad Prism 8.0 (GraphPad Software, San Diego, CA). The % inhibition was calculated using the formula: % inhibition = 100% - [(binding with the tested compound - nonspecific binding)/specific binding] × 100%. The IC50 values were converted to Ki values using the Cheng-Prusoff equation: Ki = IC50/ [1 + ([L*]/KD)], where [L*] is the concentration of the radioligand and KD is the KD of the radioligand.[68]"}, "[1]": {"experiment": "Plasma protein binding, human", "format": "in vitro ADME", "procedure": "(§1) The ADMET assessment including the hERG inhibitory activity, plasma protein binding, in vitro metabolic stability profile, CYP inhibitory effect and mutagenic evaluation were conducted by Eurofins Panlabs, Inc.[21],[61],[69]−[71]"}, "DOR": {"molecular_target": "T2, DOR (Homo sapiens, UniProt P41143)", "T2 construct": "expressed in transfected cells; host or cells: CHO (DOR-CHO), membrane preparation", "T2 sequence (P41143 whole entry)": "as above", "experiment": "DOR [35S]GTPγS functional assay", "format": "biochemical", "procedure": "(§2) The [^35S]GTPγS functional assay was used to assess the efficacy of compounds at the MOR, KOR, and DOR. In this assay, 10 μg of MOR-CHO/KOR-CHO/DOR-CHO membrane protein was incubated in 500 μL of TME with 100 mM NaCl, 20 μM GDP, 0.1 nM [^35S]GTPγS, and varying concentrations of the compound for 1.5 h in a 30 °C water bath. Protein concentration was adjusted using the Bradford protein assay. […] After incubation, bound radioactivity was separated by filtration through GF/B glass fiber filters and measured by liquid scintillation counting. All assays were performed in duplicate and repeated at least three times. Net stimulated [35S]GTPγS binding was calculated as agonist-stimulated minus basal binding."}, "CYP3A4": {"molecular_target": "T3, CYP3A4 (Homo sapiens, UniProt P08684)", "T3 construct": "Eurofins Panlabs, Inc. (contract laboratory)", "T3 sequence (P08684 whole entry)": "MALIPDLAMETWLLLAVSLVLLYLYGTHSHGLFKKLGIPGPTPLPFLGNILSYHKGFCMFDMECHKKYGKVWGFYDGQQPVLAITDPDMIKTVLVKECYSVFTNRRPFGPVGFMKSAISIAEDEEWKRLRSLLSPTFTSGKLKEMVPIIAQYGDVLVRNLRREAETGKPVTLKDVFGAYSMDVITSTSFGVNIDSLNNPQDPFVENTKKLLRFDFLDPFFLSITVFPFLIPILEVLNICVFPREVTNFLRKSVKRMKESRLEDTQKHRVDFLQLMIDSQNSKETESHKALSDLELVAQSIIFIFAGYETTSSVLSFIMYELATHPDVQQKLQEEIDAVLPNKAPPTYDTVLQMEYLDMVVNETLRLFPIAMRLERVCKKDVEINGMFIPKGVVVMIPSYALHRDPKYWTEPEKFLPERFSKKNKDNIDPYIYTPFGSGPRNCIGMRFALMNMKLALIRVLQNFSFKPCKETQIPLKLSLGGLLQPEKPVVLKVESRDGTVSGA", "experiment": "Cytochrome P450 inhibition assay, CYP3A4", "format": "in vitro ADME", "procedure": "as §1"}, "[2]": {"experiment": "Plasma protein binding, Sprague-Dawley rat", "format": "in vitro ADME", "procedure": "as §1"}, "KOR": {"molecular_target": "T4, KOR (Mus musculus, UniProt P33534)", "T4 construct": "expressed in transfected cells; host or cells: CHO (KOR-CHO), membrane preparation", "T4 sequence (P33534 whole entry)": "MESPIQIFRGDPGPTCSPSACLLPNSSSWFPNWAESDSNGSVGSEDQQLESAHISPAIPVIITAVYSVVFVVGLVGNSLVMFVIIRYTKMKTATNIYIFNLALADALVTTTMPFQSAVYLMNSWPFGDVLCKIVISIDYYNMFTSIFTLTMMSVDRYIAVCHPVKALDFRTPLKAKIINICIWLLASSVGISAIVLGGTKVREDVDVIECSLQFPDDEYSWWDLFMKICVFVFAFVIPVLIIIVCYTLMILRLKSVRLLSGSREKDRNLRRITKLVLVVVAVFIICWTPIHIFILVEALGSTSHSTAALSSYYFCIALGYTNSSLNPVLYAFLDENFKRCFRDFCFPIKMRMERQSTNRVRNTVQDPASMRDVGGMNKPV", "experiment": "KOR [35S]GTPγS functional assay", "format": "biochemical", "procedure": "as §2"}, "MOR": {"molecular_target": "T5, MOR (Mus musculus, UniProt P42866)", "T5 construct": "expressed in transfected cells; host or cells: CHO (MOR-CHO), membrane preparation", "T5 sequence (P42866 whole entry)": "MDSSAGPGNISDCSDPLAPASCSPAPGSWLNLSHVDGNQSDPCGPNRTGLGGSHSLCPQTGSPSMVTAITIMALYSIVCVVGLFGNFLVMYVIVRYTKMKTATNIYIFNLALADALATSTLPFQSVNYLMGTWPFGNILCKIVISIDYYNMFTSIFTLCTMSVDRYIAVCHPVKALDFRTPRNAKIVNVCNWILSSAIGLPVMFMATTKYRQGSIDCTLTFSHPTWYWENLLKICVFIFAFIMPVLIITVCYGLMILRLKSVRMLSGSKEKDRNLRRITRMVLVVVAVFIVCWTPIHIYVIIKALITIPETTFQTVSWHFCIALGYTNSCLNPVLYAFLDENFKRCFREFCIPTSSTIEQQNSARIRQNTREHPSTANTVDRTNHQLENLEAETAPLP", "experiment": "MOR [35S]GTPγS functional assay", "format": "biochemical", "procedure": "as §2"}, "CYP2A6": {"molecular_target": "T6, CYP2A6 (Homo sapiens, UniProt P11509)", "T6 construct": "Eurofins Panlabs, Inc. (contract laboratory)", "T6 sequence (P11509 1-494)": "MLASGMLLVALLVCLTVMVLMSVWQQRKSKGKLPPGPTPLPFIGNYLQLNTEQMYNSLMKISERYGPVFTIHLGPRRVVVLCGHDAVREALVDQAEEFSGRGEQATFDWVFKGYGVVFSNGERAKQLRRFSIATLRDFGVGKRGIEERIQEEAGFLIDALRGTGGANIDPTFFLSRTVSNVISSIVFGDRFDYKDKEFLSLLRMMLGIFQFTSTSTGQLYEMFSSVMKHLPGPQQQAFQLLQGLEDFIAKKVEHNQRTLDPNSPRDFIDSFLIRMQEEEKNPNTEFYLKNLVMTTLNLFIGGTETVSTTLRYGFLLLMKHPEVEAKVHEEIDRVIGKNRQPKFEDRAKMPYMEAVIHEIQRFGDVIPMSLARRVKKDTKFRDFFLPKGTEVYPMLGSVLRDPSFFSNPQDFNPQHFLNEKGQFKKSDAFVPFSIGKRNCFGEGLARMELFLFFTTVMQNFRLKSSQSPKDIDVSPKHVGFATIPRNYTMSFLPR", "experiment": "Cytochrome P450 inhibition assay, CYP2A6", "format": "in vitro ADME", "procedure": "as §1"}, "CYP1A2": {"molecular_target": "T7, CYP1A2 (Homo sapiens, UniProt P05177)", "T7 construct": "Eurofins Panlabs, Inc. (contract laboratory)", "T7 sequence (P05177 1-516)": "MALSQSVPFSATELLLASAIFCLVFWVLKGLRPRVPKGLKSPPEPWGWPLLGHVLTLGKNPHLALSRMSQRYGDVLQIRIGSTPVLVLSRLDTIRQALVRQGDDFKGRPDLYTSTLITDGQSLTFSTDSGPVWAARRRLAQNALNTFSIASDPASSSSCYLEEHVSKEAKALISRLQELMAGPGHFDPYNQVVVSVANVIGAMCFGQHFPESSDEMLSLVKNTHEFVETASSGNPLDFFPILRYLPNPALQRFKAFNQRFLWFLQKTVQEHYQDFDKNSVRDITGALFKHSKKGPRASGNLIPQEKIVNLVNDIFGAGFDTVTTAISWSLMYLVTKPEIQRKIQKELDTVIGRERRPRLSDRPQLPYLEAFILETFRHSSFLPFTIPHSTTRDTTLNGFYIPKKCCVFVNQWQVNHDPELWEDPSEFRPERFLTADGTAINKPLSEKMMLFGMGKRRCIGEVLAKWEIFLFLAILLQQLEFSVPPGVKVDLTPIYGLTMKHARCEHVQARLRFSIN", "experiment": "Cytochrome P450 inhibition assay, CYP1A2", "format": "in vitro ADME", "procedure": "as §1"}, "morphine-pelleted mice": {"test_system": "morphine-pelleted mice", "experiment": "In vivo opioid withdrawal studies in morphine-pelleted mice", "parameters": "species or system mouse", "procedure": "Swiss Webster mice (six males per group, weighing 25–35 g and aged 6–8 weeks) were used. Following a previously established protocol,[20] a 75 mg morphine pellet was implanted subcutaneously into the back of each mouse, and they were allowed to recover in their home cages. Prior to testing, the mice were habituated for 30 min in an open-topped, clear Plexiglas observation chamber (26 × 26 × 26 cm^3) with lines marking the floor into quadrants. […]. Withdrawal symptoms began within 3 min of antagonist administration. Escape jumps, paw tremors, and wet dog shakes were recorded by counting their occurrences over a 20 min period for each mouse. Results are expressed as the mean ± SEM."}, "CYP2C19": {"molecular_target": "T8, CYP2C19 (Homo sapiens, UniProt P33261)", "T8 construct": "Eurofins Panlabs, Inc. (contract laboratory)", "T8 sequence (P33261 whole entry)": "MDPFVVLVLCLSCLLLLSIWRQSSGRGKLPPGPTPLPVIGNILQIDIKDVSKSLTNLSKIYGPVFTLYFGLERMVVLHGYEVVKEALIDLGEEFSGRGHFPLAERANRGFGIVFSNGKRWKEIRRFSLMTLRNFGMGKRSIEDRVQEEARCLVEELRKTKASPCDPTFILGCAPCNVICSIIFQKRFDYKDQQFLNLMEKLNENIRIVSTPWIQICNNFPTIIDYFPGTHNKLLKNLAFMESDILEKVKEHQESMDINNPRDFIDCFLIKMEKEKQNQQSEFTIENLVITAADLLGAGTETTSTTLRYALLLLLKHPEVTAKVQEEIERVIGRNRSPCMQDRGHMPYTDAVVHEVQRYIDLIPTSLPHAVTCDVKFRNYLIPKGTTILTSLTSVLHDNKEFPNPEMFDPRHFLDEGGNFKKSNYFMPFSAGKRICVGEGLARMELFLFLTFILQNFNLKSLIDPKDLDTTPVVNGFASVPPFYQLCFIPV", "experiment": "Cytochrome P450 inhibition assay, CYP2C19", "format": "in vitro ADME", "procedure": "as §1"}, "[3]": {"settings": "5 mg/kg s.c., counted over 20 min"}}, "note": "Where a name gives a salt, the structure may show the parent alone.", "data": [{"smiles": "O=C(N[C@H]1CC[C@@]2(O)[C@H]3Cc4ccc(O)c5c4[C@@]2(CCN3CC2CC2)[C@H]1O5)c1nccs1", "note": "[Compound 6, 17-Cyclopropylmethyl-3,14β-dihydroxy-4,5α-epoxy-6α-(2′-thiazolylcarboxamido)-morphinan hydrochloride]", "values": [{"measurement": "Ki", "setting": "δ opioid receptor (DOR)", "value": "41.1 ± 3.58", "unit": "nM"}, {"measurement": "Selectivity δ/μ", "setting": "δ opioid receptor (DOR); ratio of Ki values", "value": 164}, {"measurement": "fraction unbound", "setting": "[1]", "value": 0.56}, {"measurement": "EC50", "setting": "DOR", "value": "23.6 ± 4.29", "unit": "nM"}, {"measurement": "Emax", "setting": "DOR; relative to 3 μM SNC80, mean ± SEM, read-out: DOR [35S]GTPγS binding % Emax of SNC80", "value": "46.5 ± 2.17", "unit": "%"}, {"measurement": "inhibition at 10 µM", "setting": "CYP3A4; 1.0E-05 M", "value": 23.5, "unit": "%"}, {"measurement": "inhibition at 100 nM", "setting": "CYP3A4; 1.0E-07 M", "value": 10.1, "unit": "%"}, {"measurement": "fraction unbound", "setting": "[2]", "value": 0.4}, {"measurement": "EC50", "setting": "KOR", "value": "3.83 ± 0.62", "unit": "nM"}, {"measurement": "Emax", "setting": "KOR; relative to 3 μM U50488H, mean ± SEM, read-out: KOR [35S]GTPγS binding % Emax of U50488H", "value": "23.5 ± 2.03", "unit": "%"}, {"measurement": "EC50", "setting": "MOR", "value": "2.16 ± 0.38", "unit": "nM"}, {"measurement": "Emax", "setting": "MOR; read-out: MOR [35S]GTPγS Binding %Emax of DAMGO, relative to 3 μM DAMGO, mean ± SEM", "value": "6 to 11", "unit": "%"}, {"measurement": "MOR [35S]GTPγS Binding %Emax of DAMGO", "setting": "MOR; relative to 3 μM DAMGO, mean ± SEM", "value": "11.3 ± 1.30", "unit": "%"}, {"measurement": "inhibition at 10 µM", "setting": "CYP2A6; 1.0E-05 M", "value": 7.8, "unit": "%"}, {"measurement": "inhibition at 100 nM", "setting": "CYP2A6; 1.0E-07 M", "value": 6.3, "unit": "%"}, {"measurement": "inhibition at 10 µM", "setting": "CYP1A2; 1.0E-05 M", "value": 7.4, "unit": "%"}, {"measurement": "inhibition at 100 nM", "setting": "CYP1A2; 1.0E-07 M", "value": 11.4, "unit": "%"}, {"measurement": "Jumps, mean count", "setting": "morphine-pelleted mice; [3]", "value": 36.8}, {"measurement": "Paw tremors, mean count", "setting": "morphine-pelleted mice; [3]", "value": 30.2}, {"measurement": "Wet dog shake, mean count", "setting": "morphine-pelleted mice; [3]", "value": 9.8}, {"measurement": "Precipitated withdrawal symptoms, in words", "setting": "morphine-pelleted mice; s.c.", "value": "fewer wet dog shakes and paw tremors at all testing doses than 1 mg/kg NLX"}, {"measurement": "inhibition at 10 µM", "setting": "CYP2C19; 1.0E-05 M", "value": 78.4, "unit": "%"}, {"measurement": "inhibition at 100 nM", "setting": "CYP2C19; 1.0E-07 M", "value": 13.2, "unit": "%"}]}]}
